Test system: CD8+ T cells
Assay: Drug concentration in CD8+ T cells after in vitro incubation
Type: cell-based
Conditions: free drug at 10-fold higher dose, compared to drug-loaded nanoparticles

With Cc1cccc(-c2[nH]c(C(C)(C)C)nc2-c2ccc3nccnc3c2)n1 [SB525334] the drug/cell ratio was “lower drug/cell ratio”.
